Data: PMC12446476 (Nature Communications, 2025)
Values after ≈ are worked out from the molar mass of the structure shown. Values joined by “and” are separate entries in the source; they are usually repeats but may differ in a detail not shown here. Equal entries are not always repeated. Where two headings read alike, the source gives them in different places.

Assays:
[1] = system: E. coli WP2 uvrA; test: Ames assay, E. coli strain; format: cell-based; conditions: with S9, positive control 1, 2 or 20 µg/plate
Protocol: (§1) Ames assays were performed using four strains of Salmonella typhimurium (TA1535, TA1537, TA98 and TA100) and a single strain of E. coli (WRP2 uvrA) in the presence and absence of S9 tissue homogenate. Dose levels (µg/plate) up to 4000 were assessed for WP2 uvrA and TA98, 500 for TA1535, 250 for TA1537 and 62.5 for TA100.

[2] = system: Salmonella typhimurium (TA1535, TA1537, TA98 and TA100); format: cell-based
Protocol: as §1

[3] = system: intracellular N. gonorrhoeae; test: Intracellular killing in HeLa229 cells; format: cell-based, Neisseria gonorrhoeae; conditions: dilution 0, replicates 1-3, counts 1-2
Protocol: Intracellular killing was assessed within HeLa229 cells (European Collection of Authenticated Cell Cultures, London, UK) that were seeded at ~3 × 10^5 cells/mL and grown to 70–80% confluence in RPMI-glutamine media supplemented with 10% (v/v) heat-inactivated fetal bovine serum (FBS, Gibco, MA, USA). Cells were incubated at 37 °C with 5% CO2 for 24 h, then washed with serum-free RPMI-1640 prior to infection. N. gonorrhoeae was scraped from agar plates and resuspended in Dulbecco’s Phosphate Buffered Saline (DPBS, Sigma-Aldrich), pelleted, then resuspended in RPMI with 2% FBS. Bacterial suspensions were used to infect HeLa229 cells at a multiplicity of infection of 100:1. Plates were briefly centrifuged (500 × g for 5 min), then incubated for one hour. This incubation and all subsequent incubations were performed at 37 °C with 5% CO2. Non-adherent cells were removed by washing with serum-free RPMI, and the remaining extracellular bacteria were killed via resuspension in RPMI-glutamine supplemented with 2% FBS and 200 μg/mL gentamycin and incubation for one hour. […] Azithromycin-treated samples were included for control/comparison. […] Samples were diluted and plated onto chocolate II agar for viable bacteria quantification. Intracellular killing assays were performed at Microbiologics, Kalamazoo, MI, USA, using a method adapted from previous studies[68],[69].

[4] = system: N. gonorrhoeae; test: MIC determination, agar dilution (CLSI); format: cell-based, Neisseria gonorrhoeae
From the text: The 2024 WHO N. gonorrhoeae reference strains were used for quality control. Only whole MIC doubling dilutions are reported. Clinical breakpoints or the epidemiological cutoff (ECOFF, to indicate azithromycin resistance) from EUCAST (v14.0, https://www.eucast.org/clinical_breakpoints) were used to classify isolates as antimicrobial susceptible or resistant. […] Two times the standard inoculum defined by CLSI was used to establish consistent growth in untreated control samples for some strains. In vitro time-kill assays were performed according to CLSI guidelines[65] using Columbia Broth (BD Difco) supplemented with 1% IsoVitaleX Enrichment (BD). Viable bacterial counts were generated by plating 10-fold serially diluted samples on GC agar plates containing 1% IsoVitaleX Enrichment (BD).

[5] = TA98, with S9, positive control 1, 2 or 20 µg/plate
[6] = TA100, with S9, positive control 1, 2 or 20 µg/plate
[7] = TA1535, with S9, positive control 1, 2 or 20 µg/plate
[8] = TA1537, with S9, positive control 1, 2 or 20 µg/plate
[9] = TA98, without S9, positive control 2 µg/plate
[10] = TA1537, without S9, positive control 50 µg/plate
[11] = screening panel N. gonorrhoeae isolate A
[12] = screening panel N. gonorrhoeae isolate B
[13] = screening panel N. gonorrhoeae isolate C
[14] = screening panel N. gonorrhoeae isolate D
[15] = screening panel N. gonorrhoeae isolate E
[16] = screening panel N. gonorrhoeae isolate F
[17] = screening panel N. gonorrhoeae isolate G
[18] = screening panel N. gonorrhoeae isolate H
[19] = screening panel N. gonorrhoeae isolate I
[20] = screening panel N. gonorrhoeae isolate J
[21] = screening panel N. gonorrhoeae isolate K
[22] = screening panel N. gonorrhoeae isolate L
[23] = screening panel N. gonorrhoeae isolate M
[24] = screening panel N. gonorrhoeae isolate N
[25] = TA100, without S9, positive control 1 µg/plate
[26] = TA1535, without S9, positive control 1 µg/plate

Nc1ccc2cc3ccccc3cc2c1 [2-Aminoanthracene, reference compound]
Ames bacterial mutation assessment, Mean [1]: 187
Colony count [1]: 181 and 184 and 195
Ames bacterial mutation assessment, Mean [2, 5]: 515
Colony count [2, 5]: 486 and 532 and 526
Ames bacterial mutation assessment, Mean [2, 6]: 1256
Colony count [2, 6]: 1316 and 1188 and 1256
Ames bacterial mutation assessment, Mean [2, 7]: 104
Colony count [2, 7]: 93 and 104 and 116
Ames bacterial mutation assessment, Mean [2, 8]: 95
Colony count [2, 8]: 90 and 94 and 102

O=[N+]([O-])c1ccc2c(c1)Cc1ccccc1-2 [2-Nitrofluorene, reference compound]
Ames bacterial mutation assessment, Mean [2, 9]: 173
Colony count [2, 9]: 177 and 172 and 169

Nc1c2ccccc2nc2ccccc12 [9-Aminoacridine, reference compound]
Ames bacterial mutation assessment, Mean [2, 10]: 142
Colony count [2, 10]: 128 and 153 and 146

CC[C@H]1OC(=O)[C@H](C)[C@@H](O[C@H]2C[C@@](C)(OC)[C@@H](O)[C@H](C)O2)[C@H](C)[C@@H](O[C@@H]2O[C@H](C)C[C@H](N(C)C)[C@H]2O)[C@](C)(O)C[C@@H](C)CN(C)[C@H](C)[C@@H](O)[C@]1(C)O [Azithryomycin]
Colony forming units (CFU) of N. gonorrhoeae internalised in HeLa229 cells, colony count ([3]; isolate ATCC 49226, 3 hr, 2X MIC): 19 CFU (2×) and 22 CFU and 27 CFU and 29 CFU and 32 CFU
Colony forming units (CFU) of N. gonorrhoeae internalised in HeLa229 cells, colony count ([3]; isolate ATCC 49226, 3 hr, 4X MIC): 28 CFU and 29 CFU and 24 CFU (2×) and 32 CFU and 22 CFU
Colony forming units (CFU) of N. gonorrhoeae internalised in HeLa229 cells, colony count ([3]; isolate ATCC 49226, 3 hr, 8X MIC): 20 CFU and 26 CFU and 27 CFU and 18 CFU and 28 CFU and 17 CFU
Colony forming units (CFU) of N. gonorrhoeae internalised in HeLa229 cells, colony count ([3]; isolate ATCC 49226, 6 hr, 2X MIC): 1 CFU (3×) and 3 CFU and 2 CFU (2×)
Colony forming units (CFU) of N. gonorrhoeae internalised in HeLa229 cells, colony count ([3]; isolate ATCC 49226, 6 hr, 4X MIC): 0 CFU (2×) and 1 CFU and 3 CFU (2×) and 5 CFU
Colony forming units (CFU) of N. gonorrhoeae internalised in HeLa229 cells, colony count ([3]; isolate ATCC 49226, 6 hr, 8X MIC): 1 CFU (3×) and 2 CFU (3×)
Colony forming units (CFU) of N. gonorrhoeae internalised in HeLa229 cells, colony count ([3]; isolate ATCC 49226, 10 hr, 2X MIC): 0 CFU
Colony forming units (CFU) of N. gonorrhoeae internalised in HeLa229 cells, colony count ([3]; isolate ATCC 49226, 10 hr, 4X MIC): 0 CFU
Colony forming units (CFU) of N. gonorrhoeae internalised in HeLa229 cells, colony count ([3]; isolate ATCC 49226, 10 hr, 8X MIC): 0 CFU
Colony forming units (CFU) of N. gonorrhoeae internalised in HeLa229 cells, colony count ([3]; isolate ATCC 49226, 24 hr, 2X MIC): 0 CFU
Colony forming units (CFU) of N. gonorrhoeae internalised in HeLa229 cells, colony count ([3]; isolate ATCC 49226, 24 hr, 4X MIC): 0 CFU
Colony forming units (CFU) of N. gonorrhoeae internalised in HeLa229 cells, colony count ([3]; isolate ATCC 49226, 24 hr, 8X MIC): 0 CFU
Colony forming units (CFU) of N. gonorrhoeae internalised in HeLa229 cells, colony count ([3]; isolate NCTC 13820, 3 hr, 2X MIC): 12 CFU and 15 CFU and 33 CFU and 32 CFU and 27 CFU and 29 CFU
Colony forming units (CFU) of N. gonorrhoeae internalised in HeLa229 cells, colony count ([3]; isolate NCTC 13820, 3 hr, 4X MIC): 21 CFU and 16 CFU and 33 CFU and 30 CFU and 20 CFU and 27 CFU
Colony forming units (CFU) of N. gonorrhoeae internalised in HeLa229 cells, colony count ([3]; isolate NCTC 13820, 3 hr, 8X MIC): 20 CFU and 13 CFU and 26 CFU and 30 CFU (2×) and 21 CFU
Colony forming units (CFU) of N. gonorrhoeae internalised in HeLa229 cells, colony count ([3]; isolate NCTC 13820, 6 hr, 2X MIC): 0 CFU (2×) and 1 CFU (2×) and 3 CFU (2×)
Colony forming units (CFU) of N. gonorrhoeae internalised in HeLa229 cells, colony count ([3]; isolate NCTC 13820, 6 hr, 4X MIC): 0 CFU (2×) and 1 CFU and 3 CFU

O=C1CCNc2cc(C=CC(=O)N3CC4C=C(c5ccccc5)CC4C3)cnc2N1 (stereo not shown) [Compound 3]
Minimum inhibitory concentration [4, 11]: 4 µg/mL (≈ 9.99 µM)
Minimum inhibitory concentration [4, 12]: 2 µg/mL (≈ 4.99 µM)
Minimum inhibitory concentration [4, 13]: 1 µg/mL (≈ 2.5 µM)
Minimum inhibitory concentration [4, 14]: 2 µg/mL (≈ 4.99 µM)
Minimum inhibitory concentration [4, 15]: 1 µg/mL (≈ 2.5 µM)
Minimum inhibitory concentration [4, 16]: 4 µg/mL (≈ 9.99 µM)
Minimum inhibitory concentration [4, 17]: 4 µg/mL (≈ 9.99 µM)
Minimum inhibitory concentration [4, 18]: 4 µg/mL (≈ 9.99 µM)
Minimum inhibitory concentration [4, 19]: 2 µg/mL (≈ 4.99 µM)
Minimum inhibitory concentration [4, 20]: 2 µg/mL (≈ 4.99 µM)
Minimum inhibitory concentration [4, 21]: >8 µg/mL
Minimum inhibitory concentration [4, 22]: 2 µg/mL (≈ 4.99 µM)
Minimum inhibitory concentration [4, 23]: 2 µg/mL (≈ 4.99 µM)
Minimum inhibitory concentration [4, 24]: 1 µg/mL (≈ 2.5 µM)

O=C1CCNc2cc(/C=C/C(=O)N3CCC=C(c4ccccc4)CC3)cnc2N1 [Compound 4]
Minimum inhibitory concentration [4, 11]: 4 µg/mL (≈ 10.3 µM)
Minimum inhibitory concentration [4, 12]: 2 µg/mL (≈ 5.15 µM)
Minimum inhibitory concentration [4, 13]: 2 µg/mL (≈ 5.15 µM)
Minimum inhibitory concentration [4, 14]: 2 µg/mL (≈ 5.15 µM)
Minimum inhibitory concentration [4, 15]: 1 µg/mL (≈ 2.57 µM)
Minimum inhibitory concentration [4, 16]: 4 µg/mL (≈ 10.3 µM)
Minimum inhibitory concentration [4, 17]: 4 µg/mL (≈ 10.3 µM)
Minimum inhibitory concentration [4, 18]: 4 µg/mL (≈ 10.3 µM)
Minimum inhibitory concentration [4, 19]: 2 µg/mL (≈ 5.15 µM)
Minimum inhibitory concentration [4, 20]: 2 µg/mL (≈ 5.15 µM)
Minimum inhibitory concentration [4, 21]: 4 µg/mL (≈ 10.3 µM)
Minimum inhibitory concentration [4, 22]: 2 µg/mL (≈ 5.15 µM)
Minimum inhibitory concentration [4, 23]: 2 µg/mL (≈ 5.15 µM)
Minimum inhibitory concentration [4, 24]: 1 µg/mL (≈ 2.57 µM)

Cc1oc2ccccc2c1CN(C)C(=O)/C=C/c1cnc2c(c1)NCCC(=O)N2 [Compound 5]
Minimum inhibitory concentration [4, 11]: 1 µg/mL (≈ 2.56 µM)
Minimum inhibitory concentration [4, 12]: 1 µg/mL (≈ 2.56 µM)
Minimum inhibitory concentration [4, 13]: 1 µg/mL (≈ 2.56 µM)
Minimum inhibitory concentration [4, 14]: 1 µg/mL (≈ 2.56 µM)
Minimum inhibitory concentration [4, 15]: 0.5 µg/mL (≈ 1.28 µM)
Minimum inhibitory concentration [4, 16]: 2 µg/mL (≈ 5.12 µM)
Minimum inhibitory concentration [4, 17]: 2 µg/mL (≈ 5.12 µM)
Minimum inhibitory concentration [4, 18]: 2 µg/mL (≈ 5.12 µM)
Minimum inhibitory concentration [4, 19]: 0.5 µg/mL (≈ 1.28 µM)
Minimum inhibitory concentration [4, 20]: 1 µg/mL (≈ 2.56 µM)
Minimum inhibitory concentration [4, 21]: 2 µg/mL (≈ 5.12 µM)
Minimum inhibitory concentration [4, 22]: 1 µg/mL (≈ 2.56 µM)
Minimum inhibitory concentration [4, 23]: 1 µg/mL (≈ 2.56 µM)
Minimum inhibitory concentration [4, 24]: 0.5 µg/mL (≈ 1.28 µM)

Cc1c(CN(C)C(=O)/C=C/c2cnc3c(c2)N[C@@H](C)[C@@H](O)C(=O)N3)oc2ccccc12 [Compound 9]
Minimum inhibitory concentration [4, 11]: 2 µg/mL (≈ 4.76 µM)
Minimum inhibitory concentration [4, 12]: 1 µg/mL (≈ 2.38 µM)
Minimum inhibitory concentration [4, 13]: 1 µg/mL (≈ 2.38 µM)
Minimum inhibitory concentration [4, 14]: 1 µg/mL (≈ 2.38 µM)
Minimum inhibitory concentration [4, 15]: ≤0.5 µg/mL
Minimum inhibitory concentration [4, 16]: 2 µg/mL (≈ 4.76 µM)
Minimum inhibitory concentration [4, 17]: 2 µg/mL (≈ 4.76 µM)
Minimum inhibitory concentration [4, 18]: 2 µg/mL (≈ 4.76 µM)
Minimum inhibitory concentration [4, 19]: 1 µg/mL (≈ 2.38 µM)
Minimum inhibitory concentration [4, 20]: 1 µg/mL (≈ 2.38 µM)
Minimum inhibitory concentration [4, 21]: 2 µg/mL (≈ 4.76 µM)
Minimum inhibitory concentration [4, 22]: 1 µg/mL (≈ 2.38 µM)
Minimum inhibitory concentration [4, 23]: 1 µg/mL (≈ 2.38 µM)
Minimum inhibitory concentration [4, 24]: 1 µg/mL (≈ 2.38 µM)

[N-]=[N+]=[N-].[Na+] [Sodium azide, reference compound]
Ames bacterial mutation assessment, Mean [2, 25]: 555
Colony count [2, 25]: 508 and 554 and 602
Ames bacterial mutation assessment, Mean [2, 26]: 433
Colony count [2, 26]: 428 and 408 and 464
